In patent publication US10717716B2, “1,3,4-oxadiazole derivative compounds as histone deacetylase 6 inhibitor, and the pharmaceutical composition comprising the same” (Chong Kun Dang Pharmaceutical Corp., priority 2015, dated 2020):
pIC50: −log10 of the molar value.

What was measured:
[1] = molecular target: T1, human recombinant HDAC1 (Homo sapiens, UniProt Q13547); experiment: HDAC1 enzyme activity inhibition assay (HDAC Fluorimetric Drug Discovery Kit); type: biochemical; conditions: human recombinant HDAC1, Fluor de Lys substrate 10 μM, 30° C. 60 minutes
T1 construct: purchased Enzo Life Science BML-SE456
T1 sequence (Q13547 whole entry): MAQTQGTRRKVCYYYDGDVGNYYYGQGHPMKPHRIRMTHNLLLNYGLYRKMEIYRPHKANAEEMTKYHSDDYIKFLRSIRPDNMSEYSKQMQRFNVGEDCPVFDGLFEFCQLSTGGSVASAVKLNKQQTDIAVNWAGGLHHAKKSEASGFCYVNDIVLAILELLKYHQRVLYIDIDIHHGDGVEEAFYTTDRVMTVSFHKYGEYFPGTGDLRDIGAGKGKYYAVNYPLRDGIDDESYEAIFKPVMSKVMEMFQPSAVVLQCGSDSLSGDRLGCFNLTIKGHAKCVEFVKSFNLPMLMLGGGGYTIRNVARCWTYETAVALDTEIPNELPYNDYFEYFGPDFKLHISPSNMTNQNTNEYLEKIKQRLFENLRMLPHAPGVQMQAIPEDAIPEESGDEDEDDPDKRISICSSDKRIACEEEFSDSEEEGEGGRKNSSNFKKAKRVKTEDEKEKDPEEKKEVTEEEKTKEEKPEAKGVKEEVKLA
Procedure, shortened: (§1)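 Human recombinant HDAC1 or HDAC6 (0.3 μg) reacted with 10 μM Fluor de Lys-SIRT1 substrate and 5-fold compound dilutions for 60 min at 30 °C. Developer II added for 30 min, fluorescence read at Ex 360/Em 460; IC50 calculated from the readings.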

[2] = molecular target: T2, human recombinant HDAC6 (Homo sapiens, UniProt Q9UBN7); experiment: HDAC6 enzyme activity inhibition assay (HDAC Fluorimetric Drug Discovery Kit); type: biochemical; conditions: for HDAC6 selectivity (fold): HDAC6 over HDAC1; for pIC50: human recombinant HDAC6, same protocol as HDAC1, read-out: HDAC6
T2 construct: purchased Calbiochem 382180
T2 sequence (Q9UBN7 1-1215): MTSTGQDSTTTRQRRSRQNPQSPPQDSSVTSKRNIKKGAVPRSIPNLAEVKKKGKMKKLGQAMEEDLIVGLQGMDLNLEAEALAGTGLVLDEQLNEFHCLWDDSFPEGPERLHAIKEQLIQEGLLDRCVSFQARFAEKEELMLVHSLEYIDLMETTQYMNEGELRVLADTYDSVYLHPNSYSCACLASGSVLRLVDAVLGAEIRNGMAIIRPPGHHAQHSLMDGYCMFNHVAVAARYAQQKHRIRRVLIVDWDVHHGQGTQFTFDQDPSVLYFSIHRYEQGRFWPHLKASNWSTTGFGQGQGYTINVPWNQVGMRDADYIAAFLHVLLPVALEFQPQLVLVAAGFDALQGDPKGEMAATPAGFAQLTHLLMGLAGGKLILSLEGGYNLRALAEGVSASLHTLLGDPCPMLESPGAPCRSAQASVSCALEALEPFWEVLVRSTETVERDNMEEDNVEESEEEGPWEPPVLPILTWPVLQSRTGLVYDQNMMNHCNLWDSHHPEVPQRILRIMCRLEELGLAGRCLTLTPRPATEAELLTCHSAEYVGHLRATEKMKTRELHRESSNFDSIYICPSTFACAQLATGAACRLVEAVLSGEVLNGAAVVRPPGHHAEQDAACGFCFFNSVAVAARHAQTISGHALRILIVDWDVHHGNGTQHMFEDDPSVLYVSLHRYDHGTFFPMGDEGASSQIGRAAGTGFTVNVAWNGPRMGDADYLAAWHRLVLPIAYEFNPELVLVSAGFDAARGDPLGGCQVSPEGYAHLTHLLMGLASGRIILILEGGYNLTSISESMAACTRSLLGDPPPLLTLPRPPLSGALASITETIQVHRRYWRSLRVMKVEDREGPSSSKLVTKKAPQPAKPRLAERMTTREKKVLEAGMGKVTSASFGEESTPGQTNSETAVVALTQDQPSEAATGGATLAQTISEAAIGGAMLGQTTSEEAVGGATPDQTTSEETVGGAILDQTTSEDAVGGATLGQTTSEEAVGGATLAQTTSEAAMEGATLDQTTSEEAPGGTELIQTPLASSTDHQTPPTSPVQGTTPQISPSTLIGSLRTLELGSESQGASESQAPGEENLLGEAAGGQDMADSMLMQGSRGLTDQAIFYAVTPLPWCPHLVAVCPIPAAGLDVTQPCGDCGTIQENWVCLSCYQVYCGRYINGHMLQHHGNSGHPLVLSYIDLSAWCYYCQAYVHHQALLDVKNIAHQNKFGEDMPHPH
Procedure, shortened: as §1

Row | pIC50 [1] | HDAC6 selectivity (fold) [2] [fold] | pIC50 [2] | Structure (SMILES)
1 | 4.63 | 177 | 6.88 | O=C(N1CCOCC1)N(Cc1ccc(-c2nnc(C(F)(F)F)o2)cc1F)c1ccc(F)cc1F [Compound 21859, N-(2,4-difluorophenyl)-N-(2-fluoro-4-(5-(trifluoromethyl)-1,3,4-oxadiazol-2-yl)benzyl)morpholine-4-carboxamide]
2 | 4.74 | 82 | 6.66 | CCN1CCN(C(=O)N(Cc2ccc(-c3nnc(C(F)(F)F)o3)cc2)c2cccc(Cl)c2)CC1 [Compound 21860, N-(3-Chlorophenyl)-4-ethyl-N-(4-(5-(trifluoromethyl)-1,3,4-oxadiazol-2-yl)benzyl)piperazine-1-carboxamide]
3 | 4.86 | 40 | 6.46 | CCN1CCN(C(=O)N(Cc2ccc(-c3nnc(C(F)(F)F)o3)cc2F)c2cccc(Cl)c2)CC1 [Compound 21861, N-(3-Chlorophenyl)-4-ethyl-N-(2-fluoro-4-(5-(trifluoromethyl)-1,3,4-oxadiazol-2-yl)benzyl)piperazine-1-carboxamide]
4 | 4.47 | 71 | 6.33 | CCN1CCN(C(=O)N(Cc2ccc(-c3nnc(C(F)(F)F)o3)cc2)c2ccc(Cl)cc2)CC1 [Compound 21862, N-(4-Chlorophenyl)-4-ethyl-N-(4-(5-(trifluoromethyl)-1,3,4-oxadiazol-2-yl)benzyl)piperazine-1-carboxamide]
5 | 4.59 | 65 | 6.40 | CCN1CCN(C(=O)N(Cc2ccc(-c3nnc(C(F)(F)F)o3)cc2F)c2ccc(Cl)cc2)CC1 [Compound 21863, N-(4-Chlorophenyl)-4-ethyl-N-(2-fluoro-4-(5-(trifluoromethyl)-1,3,4-oxadiazol-2-yl)benzyl)piperazine-1-carboxamide]
6 | 4.54 | 190 | 6.82 | CCN1CCN(C(=O)N(Cc2ccc(-c3nnc(C(F)(F)F)o3)cn2)c2ccc(Cl)cc2)CC1 [Compound 21864, N-(4-Chlorophenyl)-4-ethyl-N-((5-(5-(trifluoromethyl)-1,3,4-oxadiazol-2-yl)pyridin-2-yl)methyl)piperazine-1-carboxamide]
7 | 4.78 | 174 | 7.02 | CCN1CCN(C(=O)N(Cc2ccc(-c3nnc(C(F)(F)F)o3)cc2)c2cccc(F)c2)CC1 [Compound 21865, 4-Ethyl-N-(3-fluorophenyl)-N-(4-(5-(trifluoromethyl)-1,3,4-oxadiazol-2-yl)benzyl)piperazine-1-carboxamide]
8 | 4.62 | 174 | 6.86 | CCN1CCN(C(=O)N(Cc2ccc(-c3nnc(C(F)(F)F)o3)cc2F)c2cccc(F)c2)CC1 [Compound 21866, 4-Ethyl-N-(2-fluoro-4-(5-(trifluoromethyl)-1,3,4-oxadiazol-2-yl)benzyl)-N-(3-fluorophenyl)piperazine-1-carboxamide]
9 | 4.44 | 489 | 7.14 | CCN1CCN(C(=O)N(Cc2ccc(-c3nnc(C(F)(F)F)o3)cn2)c2cccc(F)c2)CC1 [Compound 21867, 4-Ethyl-N-(3-fluorophenyl)-N-((5-(5-(trifluoromethyl)-1,3,4-oxadiazol-2-yl)pyridin-2-yl)methyl)piperazine-1-carboxamide]
10 | 4.56 | 172 | 6.80 | CCN1CCN(C(=O)N(Cc2ccc(-c3nnc(C(F)(F)F)o3)cc2)c2ccc(F)cc2)CC1 [Compound 21868, 4-Ethyl-N-(4-fluorophenyl)-N-(4-(5-(trifluoromethyl)-1,3,4-oxadiazol-2-yl)benzyl)piperazine-1-carboxamide]
11 | 4.72 | 137 | 6.86 | CCN1CCN(C(=O)N(Cc2ccc(-c3nnc(C(F)(F)F)o3)cc2F)c2ccc(F)cc2)CC1 [Compound 21869, 4-Ethyl-N-(2-fluoro-4-(5-(trifluoromethyl)-1,3,4-oxadiazol-2-yl)benzyl)-N-(4-fluorophenyl)piperazine-1-carboxamide]
12 | 4.35 | 400 | 6.95 | CCN1CCN(C(=O)N(Cc2ccc(-c3nnc(C(F)(F)F)o3)cn2)c2ccc(F)cc2)CC1 [Compound 21870, 4-Ethyl-N-(4-fluorophenyl)-N-((5-(5-(trifluoromethyl)-1,3,4-oxadiazol-2-yl)pyridin-2-yl)methyl)piperazine-1-carboxamide]
13 | 5.04 | 28 | 6.49 | CCN1CCN(C(=O)N(Cc2ccc(-c3nnc(C(F)(F)F)o3)cc2)c2cccc(OC)c2)CC1 [Compound 21871, 4-Ethyl-N-(3-methoxyphenyl)-N-(4-(5-(trifluoromethyl)-1,3,4-oxadiazol-2-yl)benzyl)piperazine-1-carboxamide]
14 | 5.03 | 38 | 6.60 | CCN1CCN(C(=O)N(Cc2ccc(-c3nnc(C(F)(F)F)o3)cc2F)c2cccc(OC)c2)CC1 [Compound 21872, 4-Ethyl-N-(2-fluoro-4-(5-(trifluoromethyl)-1,3,4-oxadiazol-2-yl)benzyl)-N-(3-methoxyphenyl)piperazine-1-carboxamide]
15 | 4.83 | 55 | 6.57 | CCN1CCN(C(=O)N(Cc2ccc(-c3nnc(C(F)(F)F)o3)cn2)c2cccc(OC)c2)CC1 [Compound 21873, 4-Ethyl-N-(3-methoxyphenyl)-N-((5-(5-(trifluoromethyl)-1,3,4-oxadiazol-2-yl)pyridin-2-yl)methyl)piperazine-1-carboxamide]
16 | 5.21 | 20 | 6.51 | CCN1CCN(C(=O)N(Cc2ccc(-c3nnc(C(F)(F)F)o3)cc2)c2ccc(OC)cc2)CC1 [Compound 21874, 4-Ethyl-N-(4-methoxyphenyl)-N-(4-(5-(trifluoromethyl)-1,3,4-oxadiazol-2-yl)benzyl)piperazine-1-carboxamide]
17 | 5.05 | 23 | 6.41 | CCN1CCN(C(=O)N(Cc2ccc(-c3nnc(C(F)(F)F)o3)cc2F)c2ccc(OC)cc2)CC1 [Compound 21875, 4-Ethyl-N-(2-fluoro-4-(5-(trifluoromethyl)-1,3,4-oxadiazol-2-yl)benzyl)-N-(4-methoxyphenyl)piperazine-1-carboxamide]
18 | 4.93 | 46 | 6.59 | CCN1CCN(C(=O)N(Cc2ccc(-c3nnc(C(F)(F)F)o3)cn2)c2ccc(OC)cc2)CC1 [Compound 21876, 4-Ethyl-N-(4-methoxyphenyl)-N-((5-(5-(trifluoromethyl)-1,3,4-oxadiazol-2-yl)pyridin-2-yl)methyl)piperazine-1-carboxamide]
19 | 4.19 | 1424 | 7.34 | CCN1CCN(C(=O)N(Cc2ccc(-c3nnc(C(F)F)o3)cc2)c2cccc(Cl)c2)CC1 [Compound 21877, N-(3-Chlorophenyl)-N-(4-(5-(difluoromethyl)-1,3,4-oxadiazol-2-yl)benzyl)-4-ethylpiperazine-1-carboxamide]
